Laboratory results: patent US8067627B2, “Zinc-monocysteine complex and method of using zinc-cysteine complexes” (priority 2000, dated 2011)

Legend:
Format in all cases: cell-based
glutathione peroxidase = assay: Glutathione peroxidase activity in cultured retinal pigment epithelial cells; details: 0, 15, 30 or 100 μM, compared with zinc acetate, zinc chloride, zinc sulfate
Description: (§1) The biological efficacy was tested by adding 0, 15, 30 or 100 μM of zinc cysteine to cultured retinal pigment epithelial cells in comparison to zinc salts (zinc acetate, zinc chloride, and zinc sulfate).
(§2) The complex of zinc-cysteine increased the activity of antioxidant enzymes catalase and glutathione peroxidase, and the antioxidant protein metallothionein in cultured retinal pigment epithelial cells more efficiently and potently than zinc acetate, zinc chloride, and zinc sulfate. […] The zinc-cysteine complex may be readily absorbed and distributed inside the cell to provide beneficial needs in regulating the antioxidant economy.

metallothionein = assay: Metallothionein in cultured retinal pigment epithelial cells; details: 0, 15, 30 or 100 μM, compared with zinc acetate, zinc chloride, zinc sulfate
Description: as §1, §2

catalase = assay: Catalase activity in cultured retinal pigment epithelial cells; details: 0, 15, 30 or 100 μM, compared with zinc acetate, zinc chloride, zinc sulfate
Description: as §1, §2

RPE cells = assay: Protection of RPE cells from increasing hydrogen peroxide concentrations; details: compared with the zinc salts (zinc acetate, zinc chloride, zinc sulfate)
Description: as §1, §2

NC1C[S][Zn][O]C1=O (stereo not drawn) [zinc-cysteine, zinc-monocysteine complex]
activity of antioxidant enzyme glutathione peroxidase (glutathione peroxidase): increased | antioxidant protein metallothionein (metallothionein): increased | activity of antioxidant enzyme catalase (catalase): increased | protecting RPE cells from increasing hydrogen peroxide concentrations (RPE cells): more potent

N[C@@H](CS)C(=O)O [cysteine]
antioxidant protein metallothionein (metallothionein): did not have an effect | activity of antioxidant enzyme catalase (catalase): did not have an effect
